Source: US11857601B2, “Pharmaceutical composition for cancer treatment comprising fusion protein including IL-2 protein and CD80 protein and anticancer drug” (GI INNOVATION, INC., priority 2020, dated 2024)
“Also recorded” adds a separate entry of the source.

How the values were obtained:
[1] = tested on: NCl-H292 cancer cell line with human PBMCs; test: T cell activity inhibition by cancer cells expressing PD-L1 and CTLA-4 (IFN-γ ELISA); assay type: cell-based; conditions: 50 nM, 3 days
Experimental: NCl-H292 cancer cell line expressing PD-L1 and CTLA-4 was cultured for 3 hours in a culture medium containing 10 μg/ml Mitomycin C (Sigma), and then Mitomycin C was removed by washing with the culture medium. Thereafter, 5×10^4 cells of the Mitomycin C-treated NCl-H292 cancer cell line were incubated with 1×10^5 cells of human PBMCs in a 96-well microplate. Here, treatment with 5 μg/ml of PHA (Sigma) was performed for T cell activity. […] After 3 days, the supernatant of the cell culture was collected and the amount of IFN-γ was quantified using an ELISA kit (Biolegend).
As a positive control, human PBMCs stimulated with PHA in the absence of the Mitomycin C-treated NCl-H292 cancer cell line were used; and as a negative control, human PBMCs stimulated with PHA in the presence of the Mitomycin C-treated NCl-H292 cancer cell line were used. An experimental method using the IFN-7 ELISA kit was carried out in the same manner as in Experimental Example 9.3.

CT-26 cancer cell line = test: mGI101 in mice transplanted with CT-26 (Exp. Ex. 19); assay type: in vivo, BALB/c mice
CT26 cells [2] = test: mGI-101 and Lenvatinib in CT26 allotransplanted tumor model; assay type: in vivo, BALB/c mice; conditions: end of the experiment, 10 mice per group
Experimental: (§1) CT26 cells were purchased from ATCC (USA) and cultured in RPMI1640 medium (Gibco) containing 10% FBS (Gibco) and 1% antibiotic/antifungal agent (Gibco). The cultured cells were harvested using trypsin (Gibco) and then suspended in PBS. In order to establish an allotransplanted tumor model, 1×10^6 CT26 cells were subcutaneously injected into the right flank of BALB/c female mice (7-week-old).
A certain period of time after the cell transplantation, the tumor volume was measured for animals with no abnormalities in the health condition of the animals, and the mice were assigned so that the average tumor volume of each group was less than 70-100 mm^3, each group including 10 mice.
In the case of Lenvatinib powder, the dose was calculated and weighed, and it was prepared to the dose concentration using a 0.5% methyl cellulose excipient. In order to minimize the loss of the test substance, the doses for 3 or 4 days were weighed, and prepared using the excipient on the day of administration and injected.
(§2) Clinical symptoms such as a disease and a behavioral change were observed once a day during the test period, and deceased animals were identified, and the mice were sacrificed when the tumor size reached a size of 4,000 mm^3.
(§3) The tumor volume before administration of each subject was set as the value measured at the time of grouping.
(§4) All statistical calculations were performed using Prism 8.0 (Graph Pad Software Inc, USA). The comparison of tumor volume measurements was made through two-way analysis of variance followed by Tukey's multiple comparison test. A p value of less than 0.05 was considered significant.

CT26 cells [3] = test: mGI-101 and Guadecitabine in CT26 allotransplanted tumor model; assay type: in vivo, BALB/c mice; conditions: for tumor size level vs control: day 10, alone or + Guadecitabine
Text: as §1, with “5×10^5 of” for “1×10^6”, “(8-week-old) (FIG. 97).” for “(7-week-old).”
The tumor grafts of the mice were identified about day 7 after cell inoculation, and the mice were randomly assigned based on tumor volume (50-120 mm^3), each group including 13 mice.
Clinical symptoms such as a disease and a behavioral change were observed once a day during the test period, and deceased animals were identified, and the mice were sacrificed when the tumor size reached a size of 4,000 mm^3. The size of the CT26 solid cancer was measured using a tumor 3D scanner (TM900, Peria, Belgium). […] The anti-tumor efficacy was evaluated as compared with the vehicle control. All statistical calculations were performed using Prism 8.0 (Graph Pad Software Inc, USA). The comparison of tumor volume measurements was made through two-way analysis of variance followed by Tukey's multiple comparison test. A p value of less than 0.05 was considered significant.

BT-474 cells = test: mGI-101 and Herceptin in BT-474 xenotransplanted tumor model; assay type: in vivo, human
Text: BT-474 cells were purchased from ATCC (USA) and cultured in RPMI1640 medium (Welgene) containing 10% FBS (Gibco) and 1% antibiotic/antifungal agent (Gibco).
In order to establish a xenotransplanted tumor model for BT-474 cells, it was subcutaneously injected into the left flank of BALB/c nu/nu female mice (7-week-old) by pulling the leather skin of the mice to make a space using a pellet transplant trochar (MP-182, Innovative Research of America, USA) so that it was located under the skin of the left flank.
A certain period of time after cell inoculation of the tumor grafts of the mice, the tumor volume was measured for animals with no abnormalities in the health condition of the animals, and the subjects were selected so that the average of each group reached less than 60-120 mm^3, and the selected animals were assigned as evenly as possible based on tumor volume and body weight, each group including 10 animals.
as §2, §3, §4

[4] = BT-474, end of the test, 10 animals per group

Row | Substance | immune response inhibited by the cancer cell line overexpressing PD-L1 (IFN-γ) [1] | signaling of CTLA-4 expressed on effector T cells [1] | tumor volume / tumor size (CT-26 cancer cell line; 6 mg/kg i.v., vs negative control) | tumor growth inhibition rate / anticancer efficacy (CT-26 cancer cell line; compared with combination of mCD80 4.9 mg/kg and Fc-IL-2v (GI101C2) 2.8 mg/kg) | tumor inhibitory efficacy (CT-26 cancer cell line; compared with respective mCD80 and IL-2v single formulations) | number of mice with tumor growth inhibition rate of 30% or more (CT26 cells [2]) [mice] | number of mice with tumor growth inhibition rate of 50% or more (CT26 cells [2]) [mice] | number of mice with tumor growth inhibition rate of 80% or more (CT26 cells [2]) [mice] | tumor size level vs control (CT26 cells [3]; mGI-101 0.6 mg/kg) | tumor size level vs control (CT26 cells [3]; mGI-101 3 mg/kg) | tumor growth inhibitory effect (individual tumor sizes) (CT26 cells [3]; mouse, in vivo) | number of mice with tumor growth inhibition rate of 30% or more (BT-474 cells; [4]) [mice] | number of mice with tumor growth inhibition rate of 50% or more (BT-474 cells; [4]) [mice] | number of mice with tumor growth inhibition rate of 80% or more (BT-474 cells; [4]) | tumor size compared with the vehicle control (BT-474 cells; mGI-101 3 mg/kg i.v. QW: day 28, Herceptin 1 mg/kg i.p. QW: day 14, 18, 21, combination: day 14 to day 28)
1 | GI101: fusion protein: human CD80 fragment, Ig hinge, Fc domain, linker, IL-2 variant (2M) (R38A, F42A); SEQ ID NO: 9 | effectively activated | inhibited |  |  |  |  |  |  |  |  |  |  |  |  | 
2 | mGI101: fusion protein: mouse CD80, Ig hinge, Fc domain, linker, IL-2 variant (2M) (R38A, F42A); SEQ ID NO: 15 |  |  | significant inhibition of tumor size | excellent tumor growth inhibition rate; also recorded: excellent anticancer efficacy | had tumor inhibitory efficacy | 6 | 2 | 1 | tended to be lower | statistically significantly lower | exhibited the tumor growth inhibitory effect | 5 | 1 | no mouse | statistically significant reduction in tumor size
